Experimental data published in US5945429A, “Compounds useful for inhibition of farnesyl protein transferase” (Schering Corporation, priority 1997, dated 1999).
“And” between values parts separate entries of the source, which are not always exact repeats. Equal entries are not always repeated.

Tests used:
[1] = molecular target: T1, farnesyl protein transferase (Homo sapiens, UniProt P49354+P49356); assay: FPT inhibition, in vitro enzyme assay (H-ras); assay type: biochemical
Method: (§1) FPT IC50 (inhibition of farnesyl protein transferase, in vitro enzyme assay) and COS Cell IC50 (Cell-Based Assay) were determined following the assay procedures described in WO 95/10516, published Apr. 20, 1995. GGPT IC50 (inhibition of geranylgeranyl protein transferase, in vitro enzyme assay), Cell Mat Assay, and anti-tumor activity (in vivo anti-tumor studies) could be determined by the assay procedures described in WO 95/10516. The disclosure of WO 95/10516 is incorporated herein by reference thereto.

[2] = test system: Human tumor cells; assay: Soft Agar Assay (anchorage-independent growth of human tumor cells); assay type: cell-based; details: 10-16 days at 37° C., 5% CO2, MTT stain
Method: Soft Agar Assay: Anchorage-independent growth is a characteristic of tumorigenic cell lines. Human tumor cells are suspended in growth medium containing 0.3% agarose and an indicated concentration of a farnesyl transferase inhibitor. The solution is overlayed onto growth medium solidified with 0.6% agarose containing the same concentration of farnesyl transferase inhibitor as the top layer. After the top layer is solidified, plates are incubated for 10-16 days at 37° C. under 5% CO2 to allow colony outgrowth. […] Colonies can be counted and the IC50 's can be determined.

[3] = molecular target: T1, farnesyl protein transferase; assay: FPT inhibition, in vitro enzyme assay (K-ras); assay type: biochemical
Method: as §1

[4] = test system: COS Cell; assay: COS Cell IC50 (Cell-Based Assay); details: COS cells
Method: as §1

T1 sequence (P49356 whole entry, one chain of several): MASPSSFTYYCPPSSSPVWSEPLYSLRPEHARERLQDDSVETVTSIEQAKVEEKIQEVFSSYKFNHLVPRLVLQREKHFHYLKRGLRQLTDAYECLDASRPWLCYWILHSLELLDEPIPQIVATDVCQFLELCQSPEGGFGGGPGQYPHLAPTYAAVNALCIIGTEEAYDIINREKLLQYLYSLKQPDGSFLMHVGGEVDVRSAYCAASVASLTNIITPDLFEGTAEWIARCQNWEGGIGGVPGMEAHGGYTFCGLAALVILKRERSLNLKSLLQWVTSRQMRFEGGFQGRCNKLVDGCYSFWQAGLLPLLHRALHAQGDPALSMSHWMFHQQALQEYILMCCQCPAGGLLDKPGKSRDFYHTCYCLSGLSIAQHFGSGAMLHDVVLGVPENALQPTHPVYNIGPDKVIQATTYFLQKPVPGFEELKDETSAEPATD

| IC50 [1] | IC50 [3] [nM] | SMILES | IC50 [2] [nM] | IC50 [4] [nM] |
| --- | --- | --- | --- | --- |
| 5.8 nM | 22.9 | CC(C)S(=O)(=O)N1CCC(CC(=O)N2CCC([C@H]3c4ncc(Br)cc4CCc4cc(Cl)cc(Br)c43)CC2)CC1 [Example 8] | – | – |
| – | – | O=C(CC1CCN(S(=O)(=O)c2cccs2)CC1)N1CCC([C@H]2c3ncc(Br)cc3CCc3cc(Cl)cc(Br)c32)CC1 [Example 13] | > 250 | 50 |
| – | – | Cn1cnc(S(=O)(=O)N2CCC(CC(=O)N3CCC([C@H]4c5ncc(Br)cc5CCc5cc(Cl)cc(Br)c54)CC3)CC2)c1 [Example 14] | – | 400 |
| 17.5 nM and 8 nM | – | O=C(CC1CCN(S(=O)(=O)Cc2ccccc2)CC1)N1CCC([C@H]2c3ncc(Br)cc3CCc3cc(Cl)cc(Br)c32)CC1 [Example 9] | – | – |
| 34.1 nM | 52.5 | CC1(C)[C@@H]2CC[C@@]1(CS(=O)(=O)N1CCC(CC(=O)N3CCC([C@H]4c5ncc(Br)cc5CCc5cc(Cl)cc(Br)c54)CC3)CC1)C(=O)C2 [Example 10] | – | – |
| 5 nM | 14.2 | CCCS(=O)(=O)N1CCC(CC(=O)N2CCC([C@H]3c4ncc(Br)cc4CCc4cc(Cl)cc(Br)c43)CC2)CC1 [Example 7] | – | – |

| SMILES | IC50 [1] | IC50 [3] [nM] | IC50 [2] [nM] | IC50 [4] [nM] |
| --- | --- | --- | --- | --- |
| CCS(=O)(=O)N1CCC(CC(=O)N2CCC([C@H]3c4ncc(Br)cc4CCc4cc(Cl)cc(Br)c43)CC2)CC1 [Example 6] | 3.7 nM | 16.4 | 100 | 12 |
